From ChEMBL document CHEMBL2169741, “Analysis of the discriminative inhibition of mammalian digestive lipases by 3-phenyl substituted 1,3,4-oxadiazol-2(3H)-ones” (Eur J Med Chem, 2012)
The source made the active and inactive calls. No cut-off for these calls is given here.

Legend:
[1] = molecular target: T1, Pancreatic triacylglycerol lipase (Sus scrofa) (UniProt P00591); test: Inhibition of PPL assessed as half inactivation time at 100 molar excess in presence of NaTDC
T1 sequence (whole entry): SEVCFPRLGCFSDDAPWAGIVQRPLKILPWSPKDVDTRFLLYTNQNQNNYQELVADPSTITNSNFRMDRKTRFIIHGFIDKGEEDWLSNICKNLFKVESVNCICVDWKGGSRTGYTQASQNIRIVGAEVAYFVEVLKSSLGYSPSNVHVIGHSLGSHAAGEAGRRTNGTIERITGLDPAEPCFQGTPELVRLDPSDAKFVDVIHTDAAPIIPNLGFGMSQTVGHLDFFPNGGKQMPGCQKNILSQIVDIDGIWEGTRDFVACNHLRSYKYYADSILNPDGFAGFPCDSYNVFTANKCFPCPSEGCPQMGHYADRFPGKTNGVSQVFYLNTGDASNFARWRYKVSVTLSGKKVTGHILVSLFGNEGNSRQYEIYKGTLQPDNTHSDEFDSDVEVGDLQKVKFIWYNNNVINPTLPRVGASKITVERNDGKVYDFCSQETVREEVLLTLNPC

[2] = molecular target: T1, Pancreatic triacylglycerol lipase (Sus scrofa); test: Inhibition of PPL after 30 mins in presence of NaTDC
[3] = molecular target: T2, Pancreatic triacylglycerol lipase (Homo sapiens) (UniProt P16233); test: Inhibition of recombinant HPL expressed in Pichia pastoris at 100 molar excess after 30 mins in presence of NaTDC
T2 sequence (whole entry): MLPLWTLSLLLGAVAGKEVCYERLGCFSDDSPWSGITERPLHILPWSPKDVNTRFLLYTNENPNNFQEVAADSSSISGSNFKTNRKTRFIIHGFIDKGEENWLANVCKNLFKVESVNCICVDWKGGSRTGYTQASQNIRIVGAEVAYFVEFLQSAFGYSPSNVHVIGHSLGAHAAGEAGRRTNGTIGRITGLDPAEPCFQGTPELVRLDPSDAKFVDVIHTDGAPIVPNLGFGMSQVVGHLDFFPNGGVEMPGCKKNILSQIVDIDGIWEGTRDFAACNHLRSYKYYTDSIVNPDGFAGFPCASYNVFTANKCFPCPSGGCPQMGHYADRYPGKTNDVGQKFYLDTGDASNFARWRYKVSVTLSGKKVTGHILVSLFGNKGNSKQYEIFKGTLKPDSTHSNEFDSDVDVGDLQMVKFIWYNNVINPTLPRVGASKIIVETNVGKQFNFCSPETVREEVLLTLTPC

[4] = molecular target: T3, Pancreatic lipase-related protein 2 (Homo sapiens) (UniProt P54317); test: Inhibition of recombinant HPLRP2 expressed in Pichia pastoris at 2 molar excess after 30 mins in presence of NaTDC
T3 sequence (whole entry): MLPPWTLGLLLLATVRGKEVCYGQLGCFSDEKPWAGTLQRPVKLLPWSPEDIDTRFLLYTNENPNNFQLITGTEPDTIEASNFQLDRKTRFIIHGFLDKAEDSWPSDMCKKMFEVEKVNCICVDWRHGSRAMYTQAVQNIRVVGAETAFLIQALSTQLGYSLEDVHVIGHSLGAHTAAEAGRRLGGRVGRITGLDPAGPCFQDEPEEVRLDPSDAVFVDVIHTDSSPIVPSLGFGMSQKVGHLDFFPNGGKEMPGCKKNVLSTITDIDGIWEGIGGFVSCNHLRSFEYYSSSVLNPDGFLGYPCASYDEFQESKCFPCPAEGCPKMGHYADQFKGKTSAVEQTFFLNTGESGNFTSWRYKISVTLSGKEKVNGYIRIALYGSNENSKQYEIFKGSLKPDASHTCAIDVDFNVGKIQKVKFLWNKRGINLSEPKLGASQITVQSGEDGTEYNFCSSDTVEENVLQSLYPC

[5] = molecular target: T1, Pancreatic triacylglycerol lipase (Sus scrofa); test: Inhibition of PPL at 400 molar excess after 30 mins in presence of NaTDC
[6] = molecular target: T4, Gastric triacylglycerol lipase (Canis lupus familiaris) (UniProt P80035); test: Inhibition of recombinant DGL expressed in transgenic maize at 2 molar excess after 30 mins in presence of NaTDC
T4 sequence (whole entry): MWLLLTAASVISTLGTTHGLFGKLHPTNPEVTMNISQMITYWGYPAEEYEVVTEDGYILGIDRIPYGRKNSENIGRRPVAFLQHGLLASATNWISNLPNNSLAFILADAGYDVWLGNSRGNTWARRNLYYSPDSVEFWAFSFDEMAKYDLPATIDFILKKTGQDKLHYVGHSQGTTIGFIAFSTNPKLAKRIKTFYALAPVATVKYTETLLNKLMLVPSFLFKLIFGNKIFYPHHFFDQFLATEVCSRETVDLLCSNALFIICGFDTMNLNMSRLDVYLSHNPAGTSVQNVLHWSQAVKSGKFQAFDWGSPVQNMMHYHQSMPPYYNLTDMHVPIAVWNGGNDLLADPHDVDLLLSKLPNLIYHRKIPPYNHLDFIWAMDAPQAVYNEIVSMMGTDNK

[7] = molecular target: T5, Bile salt-activated lipase (Homo sapiens) (UniProt P19835); test: Inhibition of human pancreatic CEH at 2 molar excess after 30 mins
T5 sequence (whole entry): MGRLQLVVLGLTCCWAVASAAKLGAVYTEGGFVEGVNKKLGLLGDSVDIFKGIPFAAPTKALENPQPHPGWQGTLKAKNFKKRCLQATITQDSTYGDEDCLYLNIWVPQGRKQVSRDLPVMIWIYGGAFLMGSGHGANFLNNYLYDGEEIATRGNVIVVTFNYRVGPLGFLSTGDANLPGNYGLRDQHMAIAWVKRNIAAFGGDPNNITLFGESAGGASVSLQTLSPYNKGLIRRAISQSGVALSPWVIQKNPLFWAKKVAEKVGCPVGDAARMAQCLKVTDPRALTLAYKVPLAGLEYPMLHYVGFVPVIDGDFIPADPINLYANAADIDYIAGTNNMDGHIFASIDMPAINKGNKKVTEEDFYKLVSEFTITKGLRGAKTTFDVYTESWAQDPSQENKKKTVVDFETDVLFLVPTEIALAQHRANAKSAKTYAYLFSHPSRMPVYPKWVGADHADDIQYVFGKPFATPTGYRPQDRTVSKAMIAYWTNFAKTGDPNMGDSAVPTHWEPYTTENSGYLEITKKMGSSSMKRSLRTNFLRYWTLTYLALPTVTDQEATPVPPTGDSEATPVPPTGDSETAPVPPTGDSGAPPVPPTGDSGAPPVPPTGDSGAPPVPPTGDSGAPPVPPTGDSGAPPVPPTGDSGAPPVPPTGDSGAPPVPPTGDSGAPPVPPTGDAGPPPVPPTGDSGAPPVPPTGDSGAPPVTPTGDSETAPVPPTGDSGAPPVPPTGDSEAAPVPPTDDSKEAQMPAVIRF

[8] = molecular target: T5, Bile salt-activated lipase (Homo sapiens); test: Inhibition of human pancreatic CEH at 20 molar excess after 30 mins
[9] = molecular target: T4, Gastric triacylglycerol lipase (Canis lupus familiaris); test: Inhibition of recombinant DGL expressed in transgenic maize assessed as hydrolysis of trybutyrin emulsion at 10 to 40 molar excess after 30 mins in absence of NaTDC
[10] = molecular target: T4, Gastric triacylglycerol lipase (Canis lupus familiaris); test: Inhibition of recombinant DGL expressed in transgenic maize assessed as residual activity at 40 molar excess after 30 mins by mass spectrophotometric analysis in presence of NaTDC
[11] = molecular target: T2, Pancreatic triacylglycerol lipase (Homo sapiens); test: Inhibition of recombinant HPL expressed in Pichia pastoris at 400 molar excess after 30 mins in presence of NaTDC
[12] = molecular target: T6, Pancreatic lipase-related protein 2 (Cavia porcellus) (UniProt P81139); test: Inhibition of recombinant GPLRP2 expressed in Aspergillus oryzae at 20 molar excess after 30 mins in presence of NaTDC
T6 sequence (whole entry): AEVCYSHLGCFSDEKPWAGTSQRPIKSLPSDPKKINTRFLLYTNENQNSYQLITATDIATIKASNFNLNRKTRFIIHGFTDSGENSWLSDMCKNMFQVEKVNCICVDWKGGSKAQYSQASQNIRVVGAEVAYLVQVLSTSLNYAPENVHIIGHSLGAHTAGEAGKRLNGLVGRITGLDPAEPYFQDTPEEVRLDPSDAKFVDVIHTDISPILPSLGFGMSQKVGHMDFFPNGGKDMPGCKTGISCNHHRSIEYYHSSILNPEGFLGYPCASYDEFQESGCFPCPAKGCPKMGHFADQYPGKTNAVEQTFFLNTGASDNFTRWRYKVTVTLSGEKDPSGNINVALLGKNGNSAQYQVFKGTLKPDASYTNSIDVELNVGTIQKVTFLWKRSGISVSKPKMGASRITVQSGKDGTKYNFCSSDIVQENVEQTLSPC

[13] = molecular target: T4, Gastric triacylglycerol lipase (Canis lupus familiaris); test: Inhibition of recombinant DGL expressed in transgenic maize at 20 molar excess after 30 mins in presence of NaTDC
[14] = molecular target: T6, Pancreatic lipase-related protein 2 (Cavia porcellus); test: Inhibition of recombinant GPLRP2 expressed in Aspergillus oryzae assessed as residual activity at 40 molar excess after 30 mins by mass spectrophotometric analysis in presence of NaTDC
[15] = molecular target: T4, Gastric triacylglycerol lipase (Canis lupus familiaris); test: Inhibition of recombinant DGL expressed in transgenic maize assessed as hydrolysis of trybutyrin emulsion at 10 to 40 molar excess after 30 mins in presence of NaTDC
[16] = molecular target: T4, Gastric triacylglycerol lipase (Canis lupus familiaris); test: Inhibition of recombinant DGL expressed in transgenic maize after 30 mins in presence of NaTDC
[17] = molecular target: T5, Bile salt-activated lipase (Homo sapiens); test: Inhibition of human pancreatic CEH after 30 mins
[18] = molecular target: T6, Pancreatic lipase-related protein 2 (Cavia porcellus); test: Inhibition of recombinant GPLRP2 expressed in Aspergillus oryzae after 30 mins in presence of NaTDC
[19] = molecular target: T4, Gastric triacylglycerol lipase (Canis lupus familiaris); test: Inhibition of recombinant DGL expressed in transgenic maize assessed as half inactivation time at 20 molar excess in presence of NaTDC
[20] = molecular target: T6, Pancreatic lipase-related protein 2 (Cavia porcellus); test: Inhibition of recombinant GPLRP2 expressed in Aspergillus oryzae at 2 molar excess after 30 mins in presence of NaTDC
[21] = molecular target: T1, Pancreatic triacylglycerol lipase (Sus scrofa); test: Inhibition of PPL at 100 molar excess after 30 mins in presence of NaTDC
[22] = molecular target: T3, Pancreatic lipase-related protein 2 (Homo sapiens); test: Inhibition of recombinant HPLRP2 expressed in Pichia pastoris after 30 mins in presence of NaTDC
[23] = molecular target: T5, Bile salt-activated lipase (Homo sapiens); test: Inhibition of human pancreatic CEH assessed as half inactivation time at 4 molar excess
Sus scrofa = species on record: Sus scrofa; test: Inhibition of porcine Pancrelipase at 400 molar excess after 30 mins
[24] = molecular target: T2, Pancreatic triacylglycerol lipase (Homo sapiens); test: Inhibition of recombinant HPL expressed in Pichia pastoris assessed as half inactivation time at 100 molar excess in presence of NaTDC
[25] = molecular target: T5, Bile salt-activated lipase (Homo sapiens); test: Inhibition of human pancreatic CEH assessed as residual activity at 40 molar excess after 30 mins by mass spectrophotometric analysis
[26] = molecular target: T6, Pancreatic lipase-related protein 2 (Cavia porcellus); test: Inhibition of recombinant GPLRP2 expressed in Aspergillus oryzae assessed as half inactivation time at 2 molar excess in presence of NaTDC
[27] = molecular target: T3, Pancreatic lipase-related protein 2 (Homo sapiens); test: Inhibition of recombinant HPLRP2 expressed in Pichia pastoris assessed as residual activity at 40 molar excess after 30 mins by mass spectrophotometric analysis in presence of NaTDC
[28] = molecular target: T3, Pancreatic lipase-related protein 2 (Homo sapiens); test: Inhibition of recombinant HPLRP2 expressed in Pichia pastoris at 20 molar excess after 30 mins in presence of NaTDC
[29] = molecular target: T3, Pancreatic lipase-related protein 2 (Homo sapiens); test: Inhibition of recombinant HPLRP2 expressed in Pichia pastoris assessed as half inactivation time at 5 molar excess in presence of NaTDC
[30] = molecular target: T2, Pancreatic triacylglycerol lipase (Homo sapiens); test: Inhibition of recombinant HPL expressed in Pichia pastoris after 30 mins in presence of NaTDC

SMILES	T1/2 [1]	XI50 [2]	inhibition [3]	inhibition [4]	inhibition [5]	inhibition [6]	inhibition [7]	inhibition [8]	inhibition [11]	inhibition [12]	inhibition [13]	XI50 [17]	T1/2 [19]	inhibition [20]	inhibition [21]	XI50 [22]	T1/2 [23]	inhibition (Sus scrofa)	T1/2 [26]	inhibition [28]	other results
COc1nn(-c2cccc(Oc3ccccc3)c2)c(=O)o1	1.69 min	26.5 molar excess	26.3%	63.7%	87.7%	10.9%	54.5%	84.7%	42.7%	90.4%	81.9%	1.48 molar excess	1.88 min	80.1%	85.1%	0.62 molar excess	0.9 min	89.7%	0.46 min	81.2%	inhibition [9]: 65%; inhibition [10]: Active; inhibition [14]: Active; inhibition [15]: Active; XI50 [16]: 8.33 molar excess; XI50 [18]: 0.77 molar excess; T1/2 [24]: > 120 min; inhibition [25]: Active; inhibition [27]: Active; T1/2 [29]: 0.78 min; XI50 [30]: > 400 molar excess
CCCCCCCCCCC[C@@H](C[C@@H]1OC(=O)[C@H]1CCCCCC)OC(=O)[C@H](CC(C)C)NC=O	1.66 min	2.76 molar excess	77.2%	83.6%	90.9%	51.5%	80.1%	83.6%	85%	87.3%	56.3%	0.78 molar excess	0.59 min	82.7%	85.5%	0.77 molar excess	0.52 min	93.1%	0.4 min	86.3%	inhibition [15]: 60%; T1/2 [24]: 1.64 min; T1/2 [29]: 0.55 min
COc1nn(-c2ccc(Oc3ccccc3)cc2)c(=O)o1	1.84 min	57.6 molar excess	inactive	66%	87.1%	12.4%	77.1%	78.6%	20%	23.6%	92.7%	0.93 molar excess	9.31 min	13.3%	72.9%	1.04 molar excess	1.43 min	90.6%	> 60 min	88.8%	inhibition [9]: 65%; inhibition [15]: Active; XI50 [16]: 7.12 molar excess; XI50 [18]: > 40 molar excess; T1/2 [24]: > 120 min; T1/2 [29]: 2.06 min; XI50 [30]: > 400 molar excess
COc1nn(-c2ccccc2)c(=O)o1	> 60 min	> 400 molar excess	inactive	49.9%	35.8%	1.4%	71.6%	81.3%	inactive	86%	6.6%	0.77 molar excess	> 60 min	77.6%	10.7%	2.27 molar excess	1 min	34.1%	9.97 min	92.7%	XI50 [16]: > 40 molar excess; XI50 [18]: 0.74 molar excess; inhibition [24]: inactive; T1/2 [29]: 14.6 min; XI50 [30]: inactive
